The OligoGym collection
These antisense oligonucleotides have a phosphorothioate backbone; sugars and methylation of C are not fully specified.

The sequences below were run against SMAD1. Details: ASO.
Note: test concentration or dose not given here.

Sequence | remaining target (mRNA or protein) (fraction of control)
AAAGATGAACTCCTTTTC | 0.65
AAATGACATGAGGCAGTC | 0.54
AAGGGCTTCCTGGGTCTG | 0.53
ACAGTAGTAGGATGAAAT | 0.41
ACATTCATAATGACAGCA | 0.59
AGCATTCCAGTGGTTTTA | 0.31
AGTGAGGAAACGGGTGGC | 0.28
AGTGGCGTTGAGTGGCAT | 0.75
ATGCAAAAGGACAGCAGA | 0.57
ATTGATCTGGTCGCGCTG | 0.69
CAGATGAAATAGGATTAT | 0.55
CAGCCTGCCATCCAGAGA | 0.46
CATAAGCAACCGCCTGAA | 0.57
CCAGTCAGCACCGGGTTG | 0.8
CCCACACGATTGTTGAGC | 0.35
CCGCCCGCCTGCTTTCTC | 0.12
CCTCAGCTGCCAATACCC | 0.47
CCTCCACTCCTCAGCTGC | 0.5
CTGAAGATCGGGCCAGCG | 0.52
GAGCCGCTCGGCCTCTCC | 0.23

Sequence | remaining target (mRNA or protein) (fraction of control)
GCAGCTCAAGGCCTTTTC | 0.58
GCTGGACTTGTAAAGGAA | 0.57
GTAGGTGCTGCTGCTGCT | 0.49
GTCCAGAAGAGTAGAAAT | 0.44
TAACATTGGAGAGCAGCC | 0.29
TCCATGGTTCACAGACTG | 0.2
TCCTTCTGCTTGGAACCA | 0.3
TCGCCCTGTTTCCACCCA | 0.1
TGAAACCATCCACCAACA | 0.3
TGACTCATCCATCCTTCA | 0.19
TGCTACTGTCACTAAGGC | 0.12
TGCTAGTAACATCCTGGC | 0.25
TGGATATGGTGAAATAAA | 0.83
TGTTTGTGTCCATCGGCT | 0.47
TTCACCAAAGCATCAACA | 0.18
TTGGTCACAGAGGTCAAG | 0.15
TTGTTTAAATTTCTGAAT | 0.5
TTTACAGAGAAGTCTCTT | ≥ 1
TTTGTCCTAAGTTACGGA | 0.64

What follows are sequences tested against REL. Details: ASO.

Sequence | remaining target (mRNA or protein) (fraction of control)
CTCCTCCTTCTTCCCGCC | 0.78
CTTCCCGCAGGCAGCTCC | 0.56
CTTTTCCATAATAGTTCA | 0.85
GAAGTCTTGGATTATCAG | ≥ 1
GAATGGTGGGATACCTTG | 0.43
GAGGTTTATATGGGTCAT | ≥ 1
GTATTGCCTGAGCGTGGG | 0.57
GTCTCAAGTCTCTTGGGT | 0.41
GTCTGCGTTCTTGTCCAA | ≥ 1
TCATATTCACAGAACAAT | ≥ 1
TCATCGGCATTGTTGTAA | 0.54
TCATTTATCATGCTGTTA | ≥ 1
TCCCAAAGTGCTAGGATT | 0.7
TCTCTCACAACTGCATCA | 0.58
TCTTTCTGAACTTTGTCA | 0.98
TGATCCACCCGCCTTGGC | ≥ 1
TGTAATCCCAGCACTTTG | 0.73
TTACTGTTACGGGTTCTG | 0.64
TTGTATTCGCTATGTCCA | 0.53
TTTCTACGTGATCCTGGC | 0.85
TTTGCTTTATTGCCGTAA | ≥ 1

These sequences were tested against PLA2G4A. Details: ASO.

Sequence | remaining target (mRNA or protein) (fraction of control)
AAACGCCCAAAACTCTGT | ≥ 1
AAAGAGGTAAAGGGCATT | ≥ 1
AAATAAGTCGGGAGCCAT | ≥ 1
AAATCGTAGGTCTGGGCA | ≥ 1
AAGGGATACGGCAGGTTA | ≥ 1
AAGTCGGGAGCCATAAAA | 0.87
ACCAGAAACGCCCAAAAC | 0.21
AGAGGTAAAGGGCATTGT | ≥ 1
AGCACTCCTTCAGCCCTT | 0.29
AGCCCACTGTCCACTACA | 0.2
AGGCCATTATCATACGAT | ≥ 1
AGTGGATGATGGTTGGGC | ≥ 1
ATAAGTCGGGAGCCATAA | 0.98
ATAGCACTCCTTCAGCCC | ≥ 1
ATCAAGGGATACGGCAGG | 0.51
ATGTGAGCCCACTGTCCA | ≥ 1
CACTCCTTCAGCCCTTCC | ≥ 1
CACTGCCCCAGACACCCA | ≥ 1
CAGAAACGCCCAAAACTC | 0.43
CATTTTAGCCCACTTTTC | ≥ 1

Sequence | remaining target (mRNA or protein) (fraction of control)
CCAAATAAGTCGGGAGCC | 0.09
CCCCACCTGAACCCAATA | ≥ 1
CCCCTTTGTCACTTTGGT | 0.33
CTCCTTCAGCCCTTCCCG | ≥ 1
CTTGTTCATTTTAGCCCA | ≥ 1
GAAAAGAGGTAAAGGGCA | ≥ 1
GAACCAGAAACGCCCAAA | ≥ 1
GATGATGGTTGGGCAATC | ≥ 1
GATGGTTGGGCAATCTTT | ≥ 1
GCCCAAAACTCTGTTGAA | 0
GGTTGGGCAATCTTTCTC | ≥ 1
GTGAACCAGAAACGCCCA | ≥ 1
GTTCATTTTAGCCCACTT | ≥ 1
TAAATGTGAGCCCACTGT | ≥ 1
TCGGGAGCCATAAAAGTA | ≥ 1
TGAGATTCAAGCCCAGCA | 0.41
TGAGCCCACTGTCCACTA | 0.26
TGCCCCAGACACCCATTA | 0.88
TTGTGAACCAGAAACGCC | 0.08
TTTAGCCCACTTTTCTGC | 0.07

These sequences were tested against EGR1. Details: ASO.

Sequence | remaining target (mRNA or protein) (fraction of control)
AACGGAACAACACTCTGA | ≥ 1
ACTCGATTTTCTAGCATT | ≥ 1
AGAGGATCACCATTGGTT | ≥ 1
AGATGGTGCTGAGGACGA | ≥ 1
ATGCCTCTTGCGTTCATC | ≥ 1
ATGTCCGAAAGCCCTGTG | ≥ 1
CAAAAGGCACCAAGACGT | ≥ 1
CAGCAGCATCATCTCCTC | ≥ 1
CATGGCACAGACACTGTA | ≥ 1
CCACTGGGCAAGCGTAAG | ≥ 1
CCCCGCCGCCTCCACCGC | 0.38
CCTGCGGCGGCGGAAGCT | ≥ 1
CGCAGGCGAAGGGCTTTT | ≥ 1
CGGCAGGGTAGGCAGGAG | 0.56
CTCACTAGGCCACTGACC | ≥ 1
CTCGCCCGTGTCCGCCTG | ≥ 1
GAAAATGTCAGTGTTCGG | ≥ 1
GAGAGGAGAAGGAGGTGG | ≥ 1
GATGGCGGCGGCGGCTCC | ≥ 1
GATGTCAGGAAAAGACTC | ≥ 1

Sequence | remaining target (mRNA or protein) (fraction of control)
GGAAGGGCTTCTGGTCTG | ≥ 1
GGAATTGGCTCTGAGAAC | ≥ 1
GGGCCTGGCCGGGTTACA | 0.4
GGGCGAGTGAGGAAAGGA | 0.63
GGTAGGAAGAGAGAGAGG | ≥ 1
GGTCCTGGGAGCCCGACT | ≥ 1
GGTGAAGAACTTGGACAT | ≥ 1
GTGGGCAGAAAGGATTGT | 0.8
GTTTGATGAGCTGGGACT | ≥ 1
TAATACAATAGAATATGC | ≥ 1
TATCCAAAATCCATGCAA | ≥ 1
TCGAGTGGTTTGGCTGGG | ≥ 1
TCGCTGCGGCTGAAGTTG | ≥ 1
TCTCCTCCTCCTGTCCTT | ≥ 1
TCTGCTTTCTTGTCCTTC | ≥ 1
TCTTTCCCCTTTCCCTTT | 0.93
TGCGGATGTGGCGGGTGA | ≥ 1
TGCTGACCTGGGCCGGGA | ≥ 1
TGCTGTCGTTGGATGGCA | ≥ 1
TGGGTGCAGGCTCCAGGG | ≥ 1
